Measurements reported in the supplement of paper PMC11208160.

Experiment: recombinant barcode read abundance after kanamycin selection (control-corrected) (log10(CPM+1)); higher = more efficient recombination; sequences stand for … in AGTGCAGAGAAAATCGGCCAGTTTTCTCTGCCTGCAGTCCGCATGCCGT…ATTTATGCAGCGGACTGCCTTTCTCCCAAAGTGATAAACCGGACAGTATCATGGACCGGTTTTCCCGGTAATCCGTATTTGCAAGGTTGGTTTCACT; site = the 11-nt target
Experimental: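 Same pooled E. coli target screen (IS621 bridge recombinase, kanamycin selection, control-corrected CPM, mean of 2 biological replicates). Here the two core-binding nucleotides of the LTG and RTG of the bridge RNA target-binding loop are mutated. Target and donor CT cores are held constant, and the other 9 guide positions match the target. The target is read from the library oligo sequence. Molecule = full bridge RNA written as DNA: nt 1-80 from the library oligo, rest WT scaffold.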
With “AAACACAAATGGGTTCTAACCTGTTGCCTAG [AAACACACTAG_LTGcore_AA_RTGcore_CT] (site AAACACACTAG) (LTG core: AA, RTG core: CT)” the “recombinant barcode read abundance (log10)” value was 0.0621.
With “AAACACAATTGGGTTCTAACCTGTTGCCTAG [AAACACACTAG_LTGcore_AT_RTGcore_CT] (site AAACACACTAG) (LTG core: AT, RTG core: CT)” the “recombinant barcode read abundance (log10)” value was 0.375.
In the case of “AAACACACCTGGGTTCTAACCTGTTGCCTAG [AAACACACTAG_LTGcore_CC_RTGcore_CT] (site AAACACACTAG) (LTG core: CC, RTG core: CT)”, the “recombinant barcode read abundance (log10)” value is reported as 0.633.
In the case of “AAACACACGTGGGTTCTAACCTGTTGCCTCG [AAACACACTAG_LTGcore_CG_RTGcore_CG] (site AAACACACTAG) (LTG core: CG, RTG core: CG)”, the “recombinant barcode read abundance (log10)” value is reported as 0.296.
With “AAACACACTTGGGTTCTAACCTGTTGCCTAT [AAACACACTAG_LTGcore_CT_RTGcore_AT] (site AAACACACTAG) (LTG core: CT, RTG core: AT)” the “recombinant barcode read abundance (log10)” value was 0.39.
In the case of “AAACACATATGGGTTCTAACCTGTTGCCTAG [AAACACACTAG_LTGcore_TA_RTGcore_CT] (site AAACACACTAG) (LTG core: TA, RTG core: CT)”, the “recombinant barcode read abundance (log10)” value is reported as 0.104.
For “AAACACATATGGGTTCTAACCTGTTGCCTTA [AAACACACTAG_LTGcore_TA_RTGcore_TA] (site AAACACACTAG) (LTG core: TA, RTG core: TA)”, the “recombinant barcode read abundance (log10)” value was 0.146.
With “AAACAGTACTGGGTTCTAACCTGTTGCCTGT [AAACAGTCTAG_LTGcore_AC_RTGcore_AC] (site AAACAGTCTAG) (LTG core: AC, RTG core: AC)” the “recombinant barcode read abundance (log10)” value was 0.114.
With “AAACAGTAGTGGGTTCTAACCTGTTGCCTAG [AAACAGTCTAG_LTGcore_AG_RTGcore_CT] (site AAACAGTCTAG) (LTG core: AG, RTG core: CT)” the “recombinant barcode read abundance (log10)” value was 0.0711.
In the case of “AAACAGTCTTGGGTTCTAACCTGTTGCCTCA [AAACAGTCTAG_LTGcore_CT_RTGcore_TG] (site AAACAGTCTAG) (LTG core: CT, RTG core: TG)”, the “recombinant barcode read abundance (log10)” value is reported as 0.601.
With “AAACAGTCTTGGGTTCTAACCTGTTGCCTGC [AAACAGTCTAG_LTGcore_CT_RTGcore_GC] (site AAACAGTCTAG) (LTG core: CT, RTG core: GC)” the “recombinant barcode read abundance (log10)” value was 1.44.
With “AAACAGTCTTGGGTTCTAACCTGTTGCCTTG [AAACAGTCTAG_LTGcore_CT_RTGcore_CA] (site AAACAGTCTAG) (LTG core: CT, RTG core: CA)” the “recombinant barcode read abundance (log10)” value was 1.28.
With “AAACAGTTCTGGGTTCTAACCTGTTGCCTAG [AAACAGTCTAG_LTGcore_TC_RTGcore_CT] (site AAACAGTCTAG) (LTG core: TC, RTG core: CT)” the “recombinant barcode read abundance (log10)” value was 0.0714.
With “AAACATGCGTGGGTTCTAACCTGTTGCCTAG [AAACATGCTAG_LTGcore_CG_RTGcore_CT] (site AAACATGCTAG) (LTG core: CG, RTG core: CT)” the “recombinant barcode read abundance (log10)” value was 0.0702.
With “AAACATGCTTGGGTTCTAACCTGTTGCCTAA [AAACATGCTAG_LTGcore_CT_RTGcore_TT] (site AAACATGCTAG) (LTG core: CT, RTG core: TT)” the “recombinant barcode read abundance (log10)” value was 0.344.
With “AAACATGCTTGGGTTCTAACCTGTTGCCTCC [AAACATGCTAG_LTGcore_CT_RTGcore_GG] (site AAACATGCTAG) (LTG core: CT, RTG core: GG)” the “recombinant barcode read abundance (log10)” value was 0.177.
With “AAACATGCTTGGGTTCTAACCTGTTGCCTGG [AAACATGCTAG_LTGcore_CT_RTGcore_CC] (site AAACATGCTAG) (LTG core: CT, RTG core: CC)” the “recombinant barcode read abundance (log10)” value was 0.713.
With “AAACATGGATGGGTTCTAACCTGTTGCCTAG [AAACATGCTAG_LTGcore_GA_RTGcore_CT] (site AAACATGCTAG) (LTG core: GA, RTG core: CT)” the “recombinant barcode read abundance (log10)” value was 0.0906.
In the case of “AAACATGTATGGGTTCTAACCTGTTGCCTTA [AAACATGCTAG_LTGcore_TA_RTGcore_TA] (site AAACATGCTAG) (LTG core: TA, RTG core: TA)”, the “recombinant barcode read abundance (log10)” value is reported as 0.0913.
In the case of “ACGGGACATTGGGTTCTAACCTGTTGCAGAT [ACGGGACCTCT_LTGcore_AT_RTGcore_AT] (site ACGGGACCTCT) (LTG core: AT, RTG core: AT)”, the “recombinant barcode read abundance (log10)” value is reported as 0.134.
With “ACGGGACCGTGGGTTCTAACCTGTTGCAGCG [ACGGGACCTCT_LTGcore_CG_RTGcore_CG] (site ACGGGACCTCT) (LTG core: CG, RTG core: CG)” the “recombinant barcode read abundance (log10)” value was 0.086.
In the case of “ACGGGACCTTGGGTTCTAACCTGTTGCAGAA [ACGGGACCTCT_LTGcore_CT_RTGcore_TT] (site ACGGGACCTCT) (LTG core: CT, RTG core: TT)”, the “recombinant barcode read abundance (log10)” value is reported as 0.387.
In the case of “ACGGGACCTTGGGTTCTAACCTGTTGCAGCT [ACGGGACCTCT_LTGcore_CT_RTGcore_AG] (site ACGGGACCTCT) (LTG core: CT, RTG core: AG)”, the “recombinant barcode read abundance (log10)” value is reported as 1.07.
With “ACGGGACCTTGGGTTCTAACCTGTTGCAGGC [ACGGGACCTCT_LTGcore_CT_RTGcore_GC] (site ACGGGACCTCT) (LTG core: CT, RTG core: GC)” the “recombinant barcode read abundance (log10)” value was 0.944.
For “ACGGGACTATGGGTTCTAACCTGTTGCAGTA [ACGGGACCTCT_LTGcore_TA_RTGcore_TA] (site ACGGGACCTCT) (LTG core: TA, RTG core: TA)”, the “recombinant barcode read abundance (log10)” value was 0.0155.
In the case of “AGGAGGTAATGGGTTCTAACCTGTTGCCTTT [AGGAGGTCTAG_LTGcore_AA_RTGcore_AA] (site AGGAGGTCTAG) (LTG core: AA, RTG core: AA)”, the “recombinant barcode read abundance (log10)” value is reported as 0.0693.
With “AGGAGGTAGTGGGTTCTAACCTGTTGCCTCT [AGGAGGTCTAG_LTGcore_AG_RTGcore_AG] (site AGGAGGTCTAG) (LTG core: AG, RTG core: AG)” the “recombinant barcode read abundance (log10)” value was 0.0957.
With “AGGAGGTATTGGGTTCTAACCTGTTGCCTAG [AGGAGGTCTAG_LTGcore_AT_RTGcore_CT] (site AGGAGGTCTAG) (LTG core: AT, RTG core: CT)” the “recombinant barcode read abundance (log10)” value was 0.214.
With “AGGAGGTCCTGGGTTCTAACCTGTTGCCTAG [AGGAGGTCTAG_LTGcore_CC_RTGcore_CT] (site AGGAGGTCTAG) (LTG core: CC, RTG core: CT)” the “recombinant barcode read abundance (log10)” value was 0.336.
In the case of “AGGAGGTCGTGGGTTCTAACCTGTTGCCTAG [AGGAGGTCTAG_LTGcore_CG_RTGcore_CT] (site AGGAGGTCTAG) (LTG core: CG, RTG core: CT)”, the “recombinant barcode read abundance (log10)” value is reported as 0.0327.
For “AGGAGGTCTTGGGTTCTAACCTGTTGCCTCC [AGGAGGTCTAG_LTGcore_CT_RTGcore_GG] (site AGGAGGTCTAG) (LTG core: CT, RTG core: GG)”, the “recombinant barcode read abundance (log10)” value was 0.0685.
For “AGGAGGTCTTGGGTTCTAACCTGTTGCCTCT [AGGAGGTCTAG_LTGcore_CT_RTGcore_AG] (site AGGAGGTCTAG) (LTG core: CT, RTG core: AG)”, the “recombinant barcode read abundance (log10)” value was 1.02.
For “AGGAGGTCTTGGGTTCTAACCTGTTGCCTGA [AGGAGGTCTAG_LTGcore_CT_RTGcore_TC] (site AGGAGGTCTAG) (LTG core: CT, RTG core: TC)”, the “recombinant barcode read abundance (log10)” value was 0.643.
For “AGGAGGTCTTGGGTTCTAACCTGTTGCCTTC [AGGAGGTCTAG_LTGcore_CT_RTGcore_GA] (site AGGAGGTCTAG) (LTG core: CT, RTG core: GA)”, the “recombinant barcode read abundance (log10)” value was 0.107.
For “AGGAGGTGCTGGGTTCTAACCTGTTGCCTAG [AGGAGGTCTAG_LTGcore_GC_RTGcore_CT] (site AGGAGGTCTAG) (LTG core: GC, RTG core: CT)”, the “recombinant barcode read abundance (log10)” value was 0.292.
For “AGGAGGTGCTGGGTTCTAACCTGTTGCCTGC [AGGAGGTCTAG_LTGcore_GC_RTGcore_GC] (site AGGAGGTCTAG) (LTG core: GC, RTG core: GC)”, the “recombinant barcode read abundance (log10)” value was 0.911.
For “AGGAGGTTATGGGTTCTAACCTGTTGCCTTA [AGGAGGTCTAG_LTGcore_TA_RTGcore_TA] (site AGGAGGTCTAG) (LTG core: TA, RTG core: TA)”, the “recombinant barcode read abundance (log10)” value was 0.209.
With “AGGAGGTTCTGGGTTCTAACCTGTTGCCTAG [AGGAGGTCTAG_LTGcore_TC_RTGcore_CT] (site AGGAGGTCTAG) (LTG core: TC, RTG core: CT)” the “recombinant barcode read abundance (log10)” value was 0.0562.
For “AGGAGGTTTTGGGTTCTAACCTGTTGCCTAA [AGGAGGTCTAG_LTGcore_TT_RTGcore_TT] (site AGGAGGTCTAG) (LTG core: TT, RTG core: TT)”, the “recombinant barcode read abundance (log10)” value was 0.218.
With “AGGCCTCATTGGGTTCTAACCTGTTGCCTAT [AGGCCTCCTAG_LTGcore_AT_RTGcore_AT] (site AGGCCTCCTAG) (LTG core: AT, RTG core: AT)” the “recombinant barcode read abundance (log10)” value was 0.0616.
In the case of “AGGCCTCCGTGGGTTCTAACCTGTTGCCTAG [AGGCCTCCTAG_LTGcore_CG_RTGcore_CT] (site AGGCCTCCTAG) (LTG core: CG, RTG core: CT)”, the “recombinant barcode read abundance (log10)” value is reported as 0.0631.
With “AGGCCTCCGTGGGTTCTAACCTGTTGCCTCG [AGGCCTCCTAG_LTGcore_CG_RTGcore_CG] (site AGGCCTCCTAG) (LTG core: CG, RTG core: CG)” the “recombinant barcode read abundance (log10)” value was 0.0742.
In the case of “AGGCCTCCTTGGGTTCTAACCTGTTGCCTTA [AGGCCTCCTAG_LTGcore_CT_RTGcore_TA] (site AGGCCTCCTAG) (LTG core: CT, RTG core: TA)”, the “recombinant barcode read abundance (log10)” value is reported as 0.635.
With “AGGCCTCGCTGGGTTCTAACCTGTTGCCTAG [AGGCCTCCTAG_LTGcore_GC_RTGcore_CT] (site AGGCCTCCTAG) (LTG core: GC, RTG core: CT)” the “recombinant barcode read abundance (log10)” value was 0.224.
